Results on 2 compounds are retold here after US6331547A, “Water soluble SDZ RAD esters” (American Home Products Corporation, priority 2000, dated 2001).

The structures appear in SMILES notation. ≈ marks a conversion by molar mass, not a printed value.

One assay relates to U87MG Human Glioblastoma. The assay can be described thus: U87MG human glioblastoma 3H thymidine incorporation. The class given is cell-based. As for the experimental part:
U87MG Human Glioblastoma (ATCC # HTB-14)
3H Thymidine Incorporation Protocol
BRL Minimum Essential Medium with Earle Salts (500 ml)
+5 mLBRL MEM Non-Essential Amino Acids (10 mM)
+5 mLBRL Penicillin-Streptomycin
+5 mLBRL Na Pyruvate Solution (100 mM)
+5 mLBRL L-Glutamine 200 mM
+50 mLBRL Fetal Bovine Serum (Qualified)
1. Cells were trypsinized and plated at a concentration of 10^4 cells/well in a final volume of 200 μl growth medium in 96-well flat bottom plates and allowed to adhere for 24 hours at 37° C.
2. The media was removed by aspiration with care to not disturb the cell monolayer. 200 μl of fresh growth media was added per well, allowing enough wells for samples to be run in triplicate. Compounds were added in 10 μl PBS solutions and incubated for another 48 hours at 37° C.
3. During the last 5 hours of incubation, plates were labeled with 1 μCi 3H thymidine per well. (NEN thymidine, catalog # NET-027, 6.7 Ci/mmole). The 1 μCi was added in 10 μl of PBS (on the day of harvest.). The plates were returned to the incubator for the last 5 hours.
4. The radioactive media was removed by aspiration, with care not to disturb the cell monolayer. 50 μl of BRL 10×Trypsin was added to each well, followed by incubation at 37° C. for 10 minutes or until the monolayer was loosened from the well bottom. […] Mats were counted in a Wallac Betaplate counter.
(In general: Dividing cells build labelled thymidine or BrdU into new DNA.)

The test system of another assay is Candida albicans. Particulars: particularly against Candida albicans, both in vitro and in vivo; cited from earlier work.
The conditions of assay [1]: alone; U.S. Pat. No. 4,885,171; cited from earlier work.
The subject of assay [2] is experimental allergic encephalomyelitis model. Particulars: model for multiple sclerosis; cited from earlier work.
A further assay concerns adjuvant arthritis model. The conditions noted are these: model for rheumatoid arthritis; cited from earlier work.
Another assay relates to IgE-like antibodies. Particulars: in vivo; cited from earlier work.
The conditions of assay [3]: U.S. Pat. No. 5,665,772; cited from earlier work.

In general, IC50 refers to the concentration that gives 50% inhibition. A high value points to a need for much substance. For the compound `CO[C@H]1C[C@@H]2CC[C@@H](C)[C@@](O)(O2)C(=O)C(=O)N2CCCC[C@H]2C(=O)O[C@H]([C@H](C)C[C@@H]2CC[C@@H](O)[C@H](OC)C2)CC(=O)[C@H](C)/C=C(\C)[C@@H](O)[C@@H](OC)C(=O)[C@H](C)C[C@H](C)/C=C/C=C/C=C/1C` [Rapamycin], in the assay with U87MG Human Glioblastoma (Homo sapiens, U-87 MG), the IC50 came to 0.5 ng/mL (≈ 0.547 nM). For the same compound, the antifungal activity entry in the assay with Candida albicans was “found to have antifungal activity”. Besides, in assay [1], the antitumor activity result is “shown to have antitumor activity”. In assay [2], the “effect in the experimental allergic encephalomyelitis model” value is given as “effective”. In the assay on adjuvant arthritis model, the “effect in the adjuvant arthritis model” value is “effective”. For the same compound, the “inhibition of the formation of IgE-like antibodies” value in the assay on IgE-like antibodies was “effectively inhibited”.

For `CO[C@H]1C[C@@H]2CC[C@@H](C)[C@@](O)(O2)C(=O)C(=O)N2CCCC[C@H]2C(=O)O[C@H]([C@H](C)C[C@@H]2CC[C@@H](OCCO)[C@H](OC)C2)CC(=O)[C@H](C)/C=C(\C)[C@@H](O)[C@@H](OC)C(=O)[C@H](C)C[C@H](C)/C=C/C=C/C=C/1C` [SDZ-RAD, 40-O-(2-hydroxy)ethyl-rapamycin], in the assay on U87MG Human Glioblastoma (3H thymidine incorporation, 48 hours incubation, 37° C., U87MG), the concentration for half-maximal inhibition (IC50) is recorded as 2.0 ng/mL (≈ 2.09 nM). The “immunosuppressive activity in animal model” value in assay [3] is reported as “has immunosuppressive activity”.
